Results taken from ChEMBL document CHEMBL1146072, “Structure-activity relationship studies on N3-substituted willardiine derivatives acting as AMPA or kainate receptor antagonists” (J Med Chem, 2006).
Active and inactive are the calls of the source. The calls are words filed in the database; no cut-off is given here.

Key:
[1] = Induction of calcium influx in HEK293 cells expressing human GLUK5/GLUK2 by FLIPR assay
[2] = Induction of calcium influx in HEK293 cells expressing human GLUK5/GLUK6 by FLIPR assay
[3] = target: Glutamate receptor ionotropic, AMPA (Rattus norvegicus, UniProt P19490+P19491+P19492+P19493)
Description: Antagonist activity against AMPA receptor expressed in motoneurones by inhibition of fDR-VRP in the neonatal rat spinal cord

[4] = target: Glutamate receptor ionotropic, kainate 2 (Rattus norvegicus, UniProt P42260); assay: Displacement of [3H]kainate from rat GLUK6 expressed in HEK293 cells; type: cell-based
[5] = Inhibition of glutamate-induced calcium influx in HEK293 cells expressing human GLUK5/GLUK2 by FLIPR assay; type: functional, cell-based
[6] = Inhibition of glutamate-induced calcium influx in HEK293 cells expressing human GLUK5/GLUK6 by FLIPR assay; type: functional, cell-based
Glutamate receptor 1 [7] = target: T1, Glutamate receptor 1 (Homo sapiens, UniProt P42261); assay: Inhibition of glutamate-induced calcium influx in HEK293 cells expressing human GLUA1; type: functional, cell-based
[8] = target: Glutamate NMDA receptor (Rattus norvegicus) (UniProt P35439+Q00959+Q00960+Q00961+Q62645+Q8VHN2+Q9R1M7); assay: Activity against NMDA-induced depolarization of neonatal rat motoneurons expressing NMDA receptor at 50 uM; type: protein-complex assay
[9] = target: Glutamate receptor 2 (Homo sapiens) (UniProt P42262); assay: Inhibition of glutamate-induced calcium influx in HEK293 cells expressing human GLUA2 up to 100 uM; type: functional, cell-based
Glutamate receptor 4 = Glutamate receptor 4 (Homo sapiens, UniProt P48058); assay: Inhibition of glutamate-induced calcium influx in HEK293 cells expressing human GLUA4 up to 100 uM; type: functional, cell-based
[10] = target: Metabotropic glutamate receptor 5 (Rattus norvegicus) (UniProt P31424); assay: Activity against DHPG-induced depolarization of neonatal rat motoneurons expressing mGlu5 receptor at 50 uM
Glutamate receptor 1 [11] = target: T1, Glutamate receptor 1; assay: Inhibition of glutamate-induced calcium influx in HEK293 cells expressing human GLUA1 up to 100 uM; type: functional, cell-based
[12] = target: Metabotropic glutamate receptor 1 (Rattus norvegicus) (UniProt P23385); assay: Activity against DHPG-induced depolarization of neonatal rat motoneurons expressing mGlu1 receptor at 50 uM
[13] = target: Glutamate receptor ionotropic, kainate 1 (Homo sapiens, UniProt P39086); assay: Inhibition of glutamate-induced calcium influx in HEK293 cells expressing human GLUK5 by FLIPR assay; type: functional, cell-based

Chain of Glutamate receptor ionotropic, kainate 2 (P42260 whole entry): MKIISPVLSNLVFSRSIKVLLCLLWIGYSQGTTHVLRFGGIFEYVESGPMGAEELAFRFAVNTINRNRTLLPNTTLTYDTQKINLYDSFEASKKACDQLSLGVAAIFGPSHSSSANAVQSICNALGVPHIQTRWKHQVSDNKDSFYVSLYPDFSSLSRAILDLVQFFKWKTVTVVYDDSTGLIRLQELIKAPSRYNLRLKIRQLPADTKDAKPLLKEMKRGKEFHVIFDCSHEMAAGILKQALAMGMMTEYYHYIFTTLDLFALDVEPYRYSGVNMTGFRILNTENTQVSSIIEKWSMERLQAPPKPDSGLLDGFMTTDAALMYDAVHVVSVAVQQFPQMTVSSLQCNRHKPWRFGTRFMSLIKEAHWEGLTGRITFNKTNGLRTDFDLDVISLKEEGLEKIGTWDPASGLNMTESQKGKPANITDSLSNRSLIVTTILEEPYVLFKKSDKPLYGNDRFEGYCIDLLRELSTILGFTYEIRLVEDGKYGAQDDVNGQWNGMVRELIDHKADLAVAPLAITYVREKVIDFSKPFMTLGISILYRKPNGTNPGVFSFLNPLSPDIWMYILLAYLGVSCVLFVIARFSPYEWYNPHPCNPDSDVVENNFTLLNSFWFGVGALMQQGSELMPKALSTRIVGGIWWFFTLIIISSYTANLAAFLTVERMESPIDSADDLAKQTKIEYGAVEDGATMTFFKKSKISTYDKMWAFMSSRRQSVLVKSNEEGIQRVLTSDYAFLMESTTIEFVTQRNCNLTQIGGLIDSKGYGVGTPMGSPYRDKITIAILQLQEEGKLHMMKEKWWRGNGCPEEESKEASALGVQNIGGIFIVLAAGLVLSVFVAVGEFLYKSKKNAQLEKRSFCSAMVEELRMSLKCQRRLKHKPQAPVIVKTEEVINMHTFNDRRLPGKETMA
T1 sequence (P42261 whole entry): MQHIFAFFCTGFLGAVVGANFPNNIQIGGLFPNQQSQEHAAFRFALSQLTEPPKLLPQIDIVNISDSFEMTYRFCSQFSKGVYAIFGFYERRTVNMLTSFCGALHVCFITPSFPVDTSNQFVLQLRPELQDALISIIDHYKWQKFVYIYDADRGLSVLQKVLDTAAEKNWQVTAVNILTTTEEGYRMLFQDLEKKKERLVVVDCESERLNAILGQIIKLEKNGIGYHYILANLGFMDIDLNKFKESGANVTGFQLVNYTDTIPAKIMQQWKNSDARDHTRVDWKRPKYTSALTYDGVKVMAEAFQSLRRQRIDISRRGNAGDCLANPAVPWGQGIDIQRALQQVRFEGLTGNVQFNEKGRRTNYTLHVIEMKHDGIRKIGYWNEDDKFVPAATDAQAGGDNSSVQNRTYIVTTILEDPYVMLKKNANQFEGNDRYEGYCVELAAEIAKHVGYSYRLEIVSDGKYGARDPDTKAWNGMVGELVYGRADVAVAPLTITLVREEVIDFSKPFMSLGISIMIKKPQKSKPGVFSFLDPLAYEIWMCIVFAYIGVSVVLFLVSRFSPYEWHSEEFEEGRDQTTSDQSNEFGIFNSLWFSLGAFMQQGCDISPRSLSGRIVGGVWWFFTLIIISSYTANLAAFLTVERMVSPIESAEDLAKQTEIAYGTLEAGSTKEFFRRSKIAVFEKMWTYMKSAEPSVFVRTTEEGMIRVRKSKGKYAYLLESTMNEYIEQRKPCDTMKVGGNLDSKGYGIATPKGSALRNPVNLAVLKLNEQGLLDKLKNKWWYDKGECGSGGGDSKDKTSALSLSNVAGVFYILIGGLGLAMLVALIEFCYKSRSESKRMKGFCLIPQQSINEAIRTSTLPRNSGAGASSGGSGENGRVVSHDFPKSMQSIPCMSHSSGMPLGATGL
Chain of Metabotropic glutamate receptor 1 (Rattus norvegicus) (P23385 19-1199 limits assumed): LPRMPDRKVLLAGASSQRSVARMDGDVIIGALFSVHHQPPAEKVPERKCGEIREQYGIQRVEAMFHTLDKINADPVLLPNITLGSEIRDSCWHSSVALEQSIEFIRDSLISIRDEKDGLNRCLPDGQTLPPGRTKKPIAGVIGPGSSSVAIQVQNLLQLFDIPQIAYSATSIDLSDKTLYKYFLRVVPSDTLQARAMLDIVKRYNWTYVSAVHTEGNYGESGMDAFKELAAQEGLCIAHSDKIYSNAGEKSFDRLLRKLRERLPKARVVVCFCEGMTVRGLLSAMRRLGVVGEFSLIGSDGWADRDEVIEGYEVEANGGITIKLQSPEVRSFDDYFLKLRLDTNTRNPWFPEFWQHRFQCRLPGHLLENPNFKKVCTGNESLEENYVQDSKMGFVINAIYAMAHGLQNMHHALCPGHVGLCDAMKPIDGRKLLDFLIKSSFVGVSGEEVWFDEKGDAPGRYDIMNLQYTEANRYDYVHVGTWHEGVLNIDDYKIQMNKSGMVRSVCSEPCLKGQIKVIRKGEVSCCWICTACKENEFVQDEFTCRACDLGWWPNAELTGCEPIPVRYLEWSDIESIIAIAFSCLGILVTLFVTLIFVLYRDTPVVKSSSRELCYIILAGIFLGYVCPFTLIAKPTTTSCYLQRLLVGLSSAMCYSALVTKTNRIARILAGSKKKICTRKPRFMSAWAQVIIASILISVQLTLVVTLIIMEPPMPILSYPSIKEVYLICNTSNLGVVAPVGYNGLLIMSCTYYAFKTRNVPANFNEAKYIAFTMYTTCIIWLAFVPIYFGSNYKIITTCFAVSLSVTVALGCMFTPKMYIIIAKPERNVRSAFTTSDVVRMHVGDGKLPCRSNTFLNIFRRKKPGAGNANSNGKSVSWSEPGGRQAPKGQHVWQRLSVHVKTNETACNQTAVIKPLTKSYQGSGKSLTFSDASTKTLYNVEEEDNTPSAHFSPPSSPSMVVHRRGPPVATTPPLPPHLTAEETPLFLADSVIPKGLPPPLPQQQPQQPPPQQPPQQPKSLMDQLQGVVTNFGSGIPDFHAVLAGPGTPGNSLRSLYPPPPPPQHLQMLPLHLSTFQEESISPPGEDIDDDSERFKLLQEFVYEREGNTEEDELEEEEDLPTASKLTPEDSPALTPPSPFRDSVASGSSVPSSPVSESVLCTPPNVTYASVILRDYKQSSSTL
Chain of Metabotropic glutamate receptor 5 (Rattus norvegicus) (P31424 21-1203 limits assumed): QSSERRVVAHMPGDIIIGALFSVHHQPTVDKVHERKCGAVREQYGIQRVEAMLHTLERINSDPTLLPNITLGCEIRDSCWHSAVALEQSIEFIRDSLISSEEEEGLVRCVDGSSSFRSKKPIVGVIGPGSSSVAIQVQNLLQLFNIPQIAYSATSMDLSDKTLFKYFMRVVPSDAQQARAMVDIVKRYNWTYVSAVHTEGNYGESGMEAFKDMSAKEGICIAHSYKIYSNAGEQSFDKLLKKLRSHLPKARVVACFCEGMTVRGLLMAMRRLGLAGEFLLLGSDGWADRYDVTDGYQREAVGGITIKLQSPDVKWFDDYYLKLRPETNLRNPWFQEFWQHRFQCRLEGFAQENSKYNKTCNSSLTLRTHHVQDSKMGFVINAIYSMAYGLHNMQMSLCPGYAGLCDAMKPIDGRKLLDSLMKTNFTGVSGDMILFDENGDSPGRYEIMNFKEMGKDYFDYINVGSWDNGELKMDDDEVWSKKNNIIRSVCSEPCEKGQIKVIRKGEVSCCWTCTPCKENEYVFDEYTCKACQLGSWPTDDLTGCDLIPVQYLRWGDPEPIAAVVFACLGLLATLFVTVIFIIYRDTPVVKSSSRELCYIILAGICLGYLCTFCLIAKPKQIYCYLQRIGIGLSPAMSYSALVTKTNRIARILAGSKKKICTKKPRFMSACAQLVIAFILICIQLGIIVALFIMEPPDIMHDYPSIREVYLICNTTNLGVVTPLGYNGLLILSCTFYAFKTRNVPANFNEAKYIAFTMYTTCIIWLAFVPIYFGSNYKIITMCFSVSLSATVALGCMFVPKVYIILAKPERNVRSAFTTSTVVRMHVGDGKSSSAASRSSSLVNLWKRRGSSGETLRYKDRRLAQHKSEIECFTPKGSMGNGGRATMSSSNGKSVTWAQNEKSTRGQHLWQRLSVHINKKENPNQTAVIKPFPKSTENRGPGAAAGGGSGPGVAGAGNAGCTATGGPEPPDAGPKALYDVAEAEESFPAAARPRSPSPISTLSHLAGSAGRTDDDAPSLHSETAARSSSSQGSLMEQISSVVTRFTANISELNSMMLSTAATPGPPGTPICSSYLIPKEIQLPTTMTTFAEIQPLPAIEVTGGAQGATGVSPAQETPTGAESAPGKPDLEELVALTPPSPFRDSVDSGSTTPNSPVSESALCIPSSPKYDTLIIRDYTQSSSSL
Chain of Glutamate receptor 4 (P48058 whole entry): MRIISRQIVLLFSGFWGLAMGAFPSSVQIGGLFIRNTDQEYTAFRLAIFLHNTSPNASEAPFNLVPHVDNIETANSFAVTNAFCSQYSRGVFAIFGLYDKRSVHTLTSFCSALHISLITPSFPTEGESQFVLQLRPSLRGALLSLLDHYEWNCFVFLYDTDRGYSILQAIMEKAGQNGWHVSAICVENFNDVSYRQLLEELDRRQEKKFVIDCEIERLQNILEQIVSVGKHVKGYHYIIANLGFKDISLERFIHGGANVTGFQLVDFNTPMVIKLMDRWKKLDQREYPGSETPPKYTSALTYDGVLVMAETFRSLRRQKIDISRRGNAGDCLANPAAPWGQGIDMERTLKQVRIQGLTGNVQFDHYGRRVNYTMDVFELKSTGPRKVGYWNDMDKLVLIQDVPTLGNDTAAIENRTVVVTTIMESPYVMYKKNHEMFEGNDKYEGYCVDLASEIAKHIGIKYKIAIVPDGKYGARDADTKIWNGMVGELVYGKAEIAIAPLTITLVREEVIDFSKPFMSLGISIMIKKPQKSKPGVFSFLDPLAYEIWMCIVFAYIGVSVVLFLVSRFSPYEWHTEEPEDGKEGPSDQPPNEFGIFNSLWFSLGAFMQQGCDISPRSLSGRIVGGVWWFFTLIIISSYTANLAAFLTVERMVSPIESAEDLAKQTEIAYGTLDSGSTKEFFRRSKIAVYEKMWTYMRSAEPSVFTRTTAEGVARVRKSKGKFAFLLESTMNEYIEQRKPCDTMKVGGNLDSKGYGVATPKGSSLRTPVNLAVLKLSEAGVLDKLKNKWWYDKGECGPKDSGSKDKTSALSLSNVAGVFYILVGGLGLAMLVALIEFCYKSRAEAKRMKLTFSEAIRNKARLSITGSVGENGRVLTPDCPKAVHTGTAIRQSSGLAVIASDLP

| IC50 [3] [µM] | Ki [4] [µM] | SMILES | further results |
| --- | --- | --- | --- |
| 49 | > 100 | N[C@@H](Cn1ccc(=O)n(Cc2ccc(S(=O)(=O)O)cc2)c1=O)C(=O)O |  |
| 50.9 |  | N[C@@H](Cn1ccc(=O)n(Cc2ccc(-c3nn[nH]n3)cc2)c1=O)C(=O)O |  |
| 6.87 | > 100 | N[C@@H](Cn1ccc(=O)n(CCc2nnn[nH]2)c1=O)C(=O)O |  |
| 45.4 | > 100 | N[C@@H](Cn1ccc(=O)n(Cc2nn[nH]n2)c1=O)C(=O)O |  |

The remaining lines, values behind:

| SMILES | IC50 [3] [µM] | Ki [4] [µM] | further results |
| --- | --- | --- | --- |
| N[C@@H](CCC(=O)O)C(=O)O [GLUTAMIC ACID] |  |  | EC50 [1]: 35 µM; EC50 [2]: 27 µM |
| NC(Cn1ccc(=O)n(Cc2ccc(P(=O)(O)O)cc2)c1=O)C(=O)O (racemic) | 107 | > 1000 |  |
| N[C@@H](Cn1ccc(=O)n(CCC(=O)O)c1=O)C(=O)O |  | > 1000 |  |
| N[C@@H](Cn1cc(I)c(=O)n(CCc2nn[nH]n2)c1=O)C(=O)O | 3.73 |  |  |
| NS(=O)(=O)c1cccc2c1c([N+](=O)[O-])cc1nc(O)c(O)nc12 [NBQX] |  |  | IC50 [5]: 50 µM; IC50 [6]: 28 µM; IC50 (Glutamate receptor 1 [7]): 6 µM |
| N[C@@H](Cn1ccc(=O)n(Cc2ccccc2P(=O)(O)O)c1=O)C(=O)O | > 100 |  |  |
| N[C@H](Cn1ccc(=O)n(Cc2ccsc2C(=O)O)c1=O)C(=O)O | > 100 | > 1000 |  |
| N[C@@H](Cn1ccc(=O)n(Cc2ccsc2C(=O)O)c1=O)C(=O)O | 31.2 | > 100 | Activity [8]: inactive; Activity [9]: inactive; Activity (Glutamate receptor 4): inactive; Activity [10]: inactive; IC50 [5]: 1.21 µM; IC50 [6]: 0.62 µM; Activity (Glutamate receptor 1 [11]): inactive; Kd [3]: 71.4 µM; Activity [12]: inactive; IC50 [13]: 0.68 µM |
| N[C@@H](Cn1ccc(=O)n(Cc2ccoc2C(=O)O)c1=O)C(=O)O | 11.7 | > 100 |  |
